Where no end group is shown, it is not given here. The star is where a group is joined. FITC = O=C1OC2(c3ccc(O)cc3Oc3cc(O)ccc32)c2ccc(NC(=S)*)cc21
Legend:
normal colonic mucosa = test: In vivo imaging with multi-spectral scanning fiber endoscope, normal mucosa; design: species or system mice; conditions: mouse
Protocol: (§1) The CPC;Apc mice were first imaged with white light using a non-scanning endoscope (Karl Storz Veterinary Endoscopy, Goleta, Calif.) to assess for the presence of colonic adenomas that have a size between ˜0.5 to 4 mm in diameter. Any adenomas were rinsed of debris including stool and mucous, by delivering tap water through a 3 Fr instrument channel. Then, the fluorescent-labeled peptides were delivered topically at a concentration of 100 μM in 1×PBS in a volume of 1 mL to the distal 4 cm of the colon and rectum. The peptides were incubated for 5 minutes and then the unbound peptides were rinsed away with tap water 3 times. The colon was inspected for any residual peptide, and when clean, the colon was insufflated with air and imaged with the multi-spectral scanning fiber endoscope.

colonic adenomas = test: In vivo imaging with multi-spectral scanning fiber endoscope; design: species or system CPC; Apc mice; conditions: for binding to colonic dysplasia/adenomas on fluorescence images / Average T/B: 100 μM topical, 5 min; for Average T/B: Multi-Spectral Scanning Fiber Endoscopy Results, mean ± SD; for range of T/B ratios: dysplasia versus normal appearing adjacent colonic mucosa
Source text: A scanning fiber endoscope system was adapted for fluorescence detection in three channels (RGB) using excitation at 440 (NDHB510APA, Nichia, Tokyo, Japan), 532 (FTEC532-V10TA0, Blue Sky Research, Milpitas, Calif.) and 635 (FMXL635-017TA0B, Blue Sky Research) nm using an RGB coupler (OZ Optics, Ottawa, Canada). The three laser sources are delivered simultaneously into the scanning fiber, and focused to the same point on the illumination plane using a custom lens assembly, as shown in the schematic in FIG. 2A. The laser power coming out of the distal tip of the endoscope is <2 mW for each channel, a level consistent with a non-significant risk (NSR) determination by the U.S. Food and Drug Administration (FDA, 21 CFR 812) for future human clinical studies. The amplitude of the spiral scanner was reduced to achieve a divergence angle of 70 deg (max 100 deg) to minimize noise in the periphery of the image. Fluorescence is collected by a ring of 12 step-index plastic optical fibers (POF) with numerical aperture (N.A.) of 0.63 and outer diameter of 250 μm (Toray Industries Inc, Tokyo, Japan).
as §1
Videos collected during endoscopy were exported as avi video files and converted into sequential png images using Apple QuickTime. White light and fluorescence images for each adenoma were analyzed in NIH Image J. The white light image was utilized to draw a region of interest (ROI) around the adenoma or adjacent normal appearing colonic mucosa which was then superimposed onto the fluorescence image. The mean fluorescence intensities were calculated for each ROI, and a target/background (T/B) ratio was calculated for each colonic adenoma and compared to the surrounding normal appearing mucosa.

[1] = test system: human colonic mucosa sections (normal, dysplasia, adenocarcinoma); test: Peptide immunohistochemistry on frozen sections (Example 11); conditions: 10 μM, 15 min, RT
Protocol: All specimens were obtained with approval from the University of Michigan Institutional Review Board (IRB). Freshly resected specimens of human colonic mucosa were frozen in OCT and sectioned with 10 μm thickness. The sections were then air dried, washed with PBS, and incubated with the FITC-labeled peptides at a concentration of 10 μM for 15 min at RT. The sections were washed 3× for 1 min in PBS and fixed with 4% paraformaldehyde for 10 min. After fixation, the sections were washed again and mounted with ProLong Gold reagent with DAPI (Invitrogen, Carlsbad, Calif.). The sections were imaged under a confocal microscope (Leica TCS SP5 Microsystems, Bannockburn, Ill.). Adjacent sections were sent for routine histology. The intensity for each image was calculated using Matlab (Mathworks, Natick, Mass.).

[2] = test system: human colon surgical specimens (normal mucosa, dysplastic adenomas, carcinoma); test: Binding of synthetic peptides to human surgical specimens of colon cancer (Example 9); conditions: 10 μM, 15 min, RT
Protocol: Fresh frozen sections from human surgical specimens were cryosectioned with […] and used to localize peptide binding. The sectioned tissues were air dried and washed with PBS 1×. Sections were incubated with FITC labeled peptides (10 μM) for 15 min at RT. The sections were washed three times each for 1 min in PBS and fixed with 4% paraformaldehyde for 10 min. After fixing, the sections were washed again (1×) and mounted with ProLong® Gold reagent with DAPI (Invitrogen, Carlsbad, Calif.). The sections were imaged under a confocal microscope ([…]). All surgical specimens were obtained from the tissue procurement core of University of Michigan with approval from the Institutional Review Board (IRB).

HT29 cells [3] = test: Competitive inhibition assay (bound phage counts); assay type: cell-based, human; conditions: up to 200 μM unlabeled peptide
Protocol: Bound phage counts were performed to observe the competitive inhibition effect of the synthetic candidate heptapeptide with its representative phage counterpart in triplicate. HT29 cells (5×10^6) were detached with enzyme free cell dissociation buffer and blocked with 1% BSA containing PBS for 30 min at 4° C. The cells were washed and incubated with phage (2×10^11) for 15 min. Then, the cells were washed with PBS and immediately incubated with different concentrations of unlabeled peptide ranging from 10 to 200 μM for an additional 15 min. Cells were washed 3× and the bound phages were recovered as described above in bound phage counts. The bound phages were then tittered and counted, and the relative inhibition rate was calculated. The inhibition activity of no-insert WT phage by synthetic candidate peptide and phage with unrelated synthetic control peptide were used as negative controls.

Hs738.St/Int. cells [4] = test: Fluorescence microscopy of FITC-labeled peptides; assay type: cell-based, human; conditions: 10 μM, 15 min
Protocol: (§2) Preferential binding of the FITC-Peptide 2 and FITC-Control peptide 2 to target and non-target cells was also validated via fluorescence microscopy. HT29 and Hs738.St/Int. cells were grown in 22 mm2 cover slips with ˜80% confluence. Blocking of non-specific binding was performed by adding PBS/0.5% BSA for 30 min. The cells were then incubated with 10 μM of FITC-Peptide 2 or FITC-Control peptide 2 either at 4 or 37° C. for 15 min followed by 1 μg/mL Hoechst dye (Sigma Aldrich, St. Louis, Mo.) along with the peptide. The cells were washed with PBS for 3 times and fixed with 4% paraformaldehyde at room temperature for 10 min. After fixation, the cells were washed again with PBS (1×) and mounted with ProLong® Gold reagent (Invitrogen, Carlsbad, Calif.) and the fluorescence images were acquired with Leica Confocal system. (Leica Microsystems GMBH, Wetzlar, 35578 Germany)
(§3) Preferential binding of the FITC-labeled candidate and control peptides to the target and non-target cells was further validated via fluorescence microscopy. HT29 and Hs738.St/Int. cells were grown on cover slips to ˜80% confluence. Blocking of non-specific binding was performed by adding PBS/0.5% BSA for 30 min. The cells were then incubated with 10 μM of 5-FITC-labeled candidate or control peptide at either 4 or 37° C. for 15 min followed by staining with 1 μg/mL Hoechst dye (Sigma Aldrich, St. Louis, Mo.) along with the peptide. The cells were washed 3× with PBS and fixed with 4% paraformaldehyde at RT for 10 min. After fixation, the cells were washed again with PBS and mounted with ProLong Gold reagent (Invitrogen, Carlsbad, Calif.) and fluorescence images were collected with confocal microscopy (Leica TCS SP5 Microsystems, Bannockburn, Ill.).

HT29 cells [5] = test: Fluorescence microscopy of FITC-labeled peptides; assay type: cell-based, human; conditions: 10 μM, 15 min, 4° C.
Protocol: as §2
In addition, the ability of the FITC-Peptide 2 peptide to internalize within the HT29 cells was tested. HT29 cells were incubated for 15 min. at either 4° C. or 37° C. in the presence of 10 μM FITC-Peptide 2.
as §3

Hs738.St/Int. cells [6] = test: Flow cytometry of FITC-labeled peptides; assay type: cell-based, human; conditions: 10 μM, 60 min, 4° C.
Protocol: (§4) Preferential binding of FITC-Peptide 2 to target cells was validated using flow cytometry. HT29 and Hs738.St/Int. (˜2×10^5) cells were grown, detached, and blocked as described above. These cells were incubated with the FITC-Peptide 2 or -Control peptide 2 (10 μM) for 60 min at 4° C. with continuous agitation. The cells were then washed (3×) with cold PBST followed by immediate fixing for 10 min. with 4% paraformaldehyde. The cells were washed again (1×) with PBS and resuspended in 1 mL of PBS. Flow cytometry was performed using FACSDiVa (BD® LSRII, BD Biosciences, San Jose, Calif.) and analyzed using Flowjo analysis program (Tree Star Inc., Ashland, Oreg.).
(§5) Preferential binding of the candidate peptide labeled with 5-FITC to the target and control cells was also validated using flow cytometry. HT29 and Hs738.St/Int. (˜2×10^5) cells were grown, detached, and blocked, as described above. These cells were incubated with the 5-FITC labeled candidate or control peptide (10 μM) for 60 min at 4° C. with continuous agitation. The cells were then washed 3× with cold PBST followed by immediate fixation for 10 min with 4% paraformaldehyde. The cells were washed again with PBS and resuspended in 1 mL of PBS. Flow cytometry was performed using FACSDiVa (BD® LSRII, BD Biosciences, San Jose, Calif.) and analyzed using Flowjo analysis program (Tree Star Inc. Ashland, Oreg.).

HT29 cells [7] = test: Flow cytometry of FITC-labeled peptides; assay type: cell-based, human; conditions: 10 μM, 60 min, 4° C., FITC channel
Protocol: as §4, §5

[8] = test system: human EMR specimens (normal mucosa, polypoid and non-polypoid dysplasia); test: Stereomicroscopic validation on EMR specimens; conditions: 10 μmol/L, 5 min, mean±SEM
Source text: Binding of the candidate or control peptide to the dysplasia on freshly resected human specimens via endoscopic mucosal resection (EMR) was validated on fluorescence stereomicroscopy. Patients with previously diagnosed polypoid and non-polypoid dysplasia who were referred for EMR were recruited. Institutional review board approval was obtained from the VA Palo Alto Health Care System, and informed consent was acquired. After resection, the specimens were rinsed in PBS 3× to remove debris and mucous. An autofluorescence image was acquired before incubating with the peptide. Then, specimens were incubated with either the FITC-labeled candidate or control peptide at a concentration of 10 μmol/L for 5 min. The unbound peptide was rinsed off with PBS 3×. The mucosal surface of the specimen was oriented face up, and a dab of ink was applied to the upper border as a landmark to register the white light and fluorescence images with histology. A white light image was collected from the specimen with and without an overlying transparent grid that contains squares with dimensions of 1×1 mm^2. Fluorescence images were collected at 500 milliseconds per frame (with the overlying grid removed) using a stereomicroscope (Olympus SZX-16 equipped with Rolera camera; Olympus Corp, Tokyo, Japan) using 477 to 500 nm excitation and 500 to 630 nm emission. A correction to the fluorescence images was performed because the intensity at the center of the image is greater than that in the periphery due to differences in distance. A fluorescence image was collected from a solution of 10 μM FITC in a plate to provide a uniform target for calibration, allowing for quantitative analysis over the entire field of view. After the fluorescence intensities were corrected, lines along the length of the specimen spaced by 2-mm intervals in each image were identified using the grid from the white light image. The mean intensity from each 1×1 mm^2 interval along this length of tissue was calculated using Matlab and compared with histology. Histopathologic interpretation was performed by a gastrointestinal pathologist (HA) who classified the specimens stained with H&E as normal colonic mucosa, dysplasia, or adenocarcinoma. The histopathologic evaluation of the EMR specimens was conducted at VA Palo Alto Health Care System (AM) and classified as either dysplasia or normal mucosa.

| Substance | signal on normal colonic mucosa (normal colonic mucosa) | binding to colonic dysplasia/adenomas on fluorescence images (colonic adenomas) | Average T/B (colonic adenomas) | range of T/B ratios (colonic adenomas) | staining of any specimen (normal, dysplasia, adenocarcinoma) [1] | binding to specimens classified from normal to carcinoma [2] | inhibition of KCCFPAQ phage binding to HT29 cells (HT29 cells [3]) | binding to Hs738.St/Int. cells on microscopy (Hs738.St/Int. cells [4]) | binding to the surface of HT29 cells (HT29 cells [5]) | binding to Hs738.St/Int. cells on flow cytometry (Hs738.St/Int. cells [6]) | total HT29 cell population bound (HT29 cells [7]) | total HT29 cell population bound (HT29 cells [7]; listed as control peptide) | fluorescence intensity on stereomicroscopy ([8]; non-polypoid dysplasia) | fluorescence intensity on stereomicroscopy ([8]; normal mucosa) | fluorescence intensity on stereomicroscopy ([8]; polypoid dysplasia) |
| --- | --- | --- | --- | --- | --- | --- | --- | --- | --- | --- | --- | --- | --- | --- | --- |
| AKPGYLS-TAMRA: AKPGYLS labeled with 5-Carboxytetramethylrhodamine (TAMRA) (also: TAMRA label, site not given here) | minimal signal | clearly displayed specific binding | 1.67±0.12 | 1.50-1.78 |  |  |  |  |  |  |  |  |  |  |  |
| GGGAGGGAGGGK (FITC)-NH2 (GGGAGGGAGGGK(FITC)-NH2; N-terminus assumed; SMILES C[C@H](NC(=O)CNC(=O)CNC(=O)CN)C(=O)NCC(=O)NCC(=O)NCC(=O)N[C@@H](C)C(=O)NCC(=O)NCC(=O)NCC(=O)N[C@@H](CCCCNC(=S)Nc1ccc2c(c1)C(=O)OC21c2ccc(O)cc2Oc2cc(O)ccc21)C(N)=O) [FITC-Control peptide 2, glycine/alanine control peptide, reference compound] |  |  |  |  | did not stain any of the specimens | not able to bind with any of the specimens | No inhibition | did not bind | did not bind | bound minimally | 18.6% | 2.3% | 21.8±4.1 AU | 16.5±2.5 AU | 14.0±3.0 AU |
| KCCFPAQ-DEAC: KCCFPAQ labeled with 7-Diethylaminocoumarin-3-carboxylic acid (DEAC) (cysteine pairing not given here; also: DEAC label, place not given here) | minimal signal | clearly displayed specific binding | 1.71±0.19 | 1.50-2.06 |  |  |  |  |  |  |  |  |  |  |  |

From US8901276B2, “Peptide reagents and methods for detection of colon dysplasia” (The Regents of the University of Michigan, priority 2010, dated 2014)
